Results published in ChEMBL document CHEMBL1201862, “PubChem BioAssay data set” (2004).
Calls of active or inactive are those of the source.

Tests used:
[1] = rise of 4N DNA cells, HeLa – IC50, dose response (AID 1117351); format: functional, cell-based
[2] = rise of 2N DNA cells, HeLa – IC50, dose response (AID 1117349); format: functional, cell-based
[3] = P. falciparum Dd2 growth inhibitors, dose response, SYBR Green, cherry-picked samples (AID 1159567); format: functional, cell-based
[4] = Dd2 malaria parasite growth inhibition potency – SYBR Green, dry powder samples, dose response (AID 1159566); format: functional, cell-based;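 note: potency for growth inhibition with lower SYBR green DNA signal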
[5] = toxicity to human HepG2 hepatoma cells – cell-based, plate reader, dry powder samples, cytotoxicity control, dose response (AID 1159569); format: functional;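 note: inhibitor potency with signal falling toward the positive control level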
[6] = Plasmodium falciparum Dd2 Sybr green parasite growth Measured in Cell-Based and Microorganism Combination System Using Plate Reader - 2153-01_Inhibitor_Dose_DryPowder_Activity_Set3.; format: functional
[7] = growth inhibition of yeast DHODH-expressing 3D7 parasites – SYBR Green, dry powder samples, dose response (AID 1159570); format: functional, cell-based;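 note: parasite growth measured after 72 hours of compound exposure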
[8] = growth inhibition of PfATP4-mutant resistant parasites – NITD609-resistant line, SYBR Green, dry powder, dose response (AID 1159571); format: functional, cell-based;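 note: parasites synchronized at ring stage by sorbitol before testing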
[9] = viability loss in A549 lung cancer cells – cell-based, CellTiter-Glo luminescence, dry powder, set 5, cytotoxicity control, dose response (AID 743158); format: functional
[10] = viability loss in HepG2 hepatoma cells – cell-based, ATP luminescence, dry powder, set 2, cytotoxicity control, dose response (AID 743129); format: functional
Phospholipase D2 = Phospholipase D2 (Homo sapiens, UniProt O14939); experiment: PLD2 Cellular Concentration Response Study.; format: functional
Phospholipase D2, sequence (O14939 whole entry): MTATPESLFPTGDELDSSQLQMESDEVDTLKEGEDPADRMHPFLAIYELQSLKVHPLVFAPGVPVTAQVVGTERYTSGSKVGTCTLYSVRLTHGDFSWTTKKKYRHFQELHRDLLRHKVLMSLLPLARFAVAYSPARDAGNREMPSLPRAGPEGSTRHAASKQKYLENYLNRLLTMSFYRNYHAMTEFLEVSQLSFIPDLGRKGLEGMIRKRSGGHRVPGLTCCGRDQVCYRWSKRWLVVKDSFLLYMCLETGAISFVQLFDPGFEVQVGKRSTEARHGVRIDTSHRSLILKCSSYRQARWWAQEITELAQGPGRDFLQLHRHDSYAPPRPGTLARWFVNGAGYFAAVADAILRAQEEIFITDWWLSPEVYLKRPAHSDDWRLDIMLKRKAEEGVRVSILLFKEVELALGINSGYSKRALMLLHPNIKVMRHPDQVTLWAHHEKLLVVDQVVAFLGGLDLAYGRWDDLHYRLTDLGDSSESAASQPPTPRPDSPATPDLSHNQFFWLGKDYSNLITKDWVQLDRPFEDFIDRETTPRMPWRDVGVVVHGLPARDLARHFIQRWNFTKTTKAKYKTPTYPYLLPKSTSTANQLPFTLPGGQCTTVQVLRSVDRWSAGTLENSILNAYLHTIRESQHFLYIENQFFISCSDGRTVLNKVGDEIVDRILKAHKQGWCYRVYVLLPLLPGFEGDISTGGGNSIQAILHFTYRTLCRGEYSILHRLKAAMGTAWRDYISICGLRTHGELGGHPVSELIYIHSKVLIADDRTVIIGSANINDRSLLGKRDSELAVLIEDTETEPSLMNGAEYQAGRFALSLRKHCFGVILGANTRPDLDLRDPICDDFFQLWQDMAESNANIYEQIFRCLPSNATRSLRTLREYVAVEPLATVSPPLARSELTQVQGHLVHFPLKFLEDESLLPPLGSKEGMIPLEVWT

Phospholipase D1 = Phospholipase D1 (Homo sapiens, UniProt Q13393); experiment: PLD1 Cellular Concentration Response Study.; format: functional
Phospholipase D1, sequence (Q13393 whole entry): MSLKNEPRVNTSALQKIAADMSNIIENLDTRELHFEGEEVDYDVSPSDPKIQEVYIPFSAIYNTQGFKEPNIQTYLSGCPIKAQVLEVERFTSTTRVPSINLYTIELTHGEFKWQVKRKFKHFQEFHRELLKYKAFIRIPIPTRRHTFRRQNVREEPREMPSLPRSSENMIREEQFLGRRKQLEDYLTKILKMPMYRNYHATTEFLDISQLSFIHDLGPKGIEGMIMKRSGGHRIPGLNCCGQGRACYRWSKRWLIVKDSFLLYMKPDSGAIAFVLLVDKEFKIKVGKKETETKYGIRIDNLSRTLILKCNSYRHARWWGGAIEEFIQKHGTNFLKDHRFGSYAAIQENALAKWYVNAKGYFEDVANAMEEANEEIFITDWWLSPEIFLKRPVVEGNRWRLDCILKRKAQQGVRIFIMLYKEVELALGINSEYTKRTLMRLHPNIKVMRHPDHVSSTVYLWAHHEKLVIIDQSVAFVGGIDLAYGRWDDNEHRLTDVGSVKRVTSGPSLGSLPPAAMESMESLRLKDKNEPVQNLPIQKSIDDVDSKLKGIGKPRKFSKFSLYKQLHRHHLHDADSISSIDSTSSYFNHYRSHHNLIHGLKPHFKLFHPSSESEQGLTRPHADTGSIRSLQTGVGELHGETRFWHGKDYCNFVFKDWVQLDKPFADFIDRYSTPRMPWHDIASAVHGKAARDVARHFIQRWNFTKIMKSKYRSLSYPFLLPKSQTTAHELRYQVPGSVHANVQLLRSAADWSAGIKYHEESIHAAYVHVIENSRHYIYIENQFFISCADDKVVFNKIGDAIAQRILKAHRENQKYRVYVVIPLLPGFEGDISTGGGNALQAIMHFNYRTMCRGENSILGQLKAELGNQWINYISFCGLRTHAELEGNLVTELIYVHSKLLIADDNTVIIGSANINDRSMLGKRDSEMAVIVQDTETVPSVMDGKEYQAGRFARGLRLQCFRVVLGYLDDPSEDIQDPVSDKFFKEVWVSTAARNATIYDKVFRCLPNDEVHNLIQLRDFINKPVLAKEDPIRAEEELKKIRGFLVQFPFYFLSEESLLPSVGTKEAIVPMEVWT

[11] = biological target: Intestinal-type alkaline phosphatase (Mus musculus, UniProt P24822); experiment: PubChem AID 488785; format: functional
Intestinal-type alkaline phosphatase (Mus musculus, UniProt P24822), sequence (P24822 whole entry): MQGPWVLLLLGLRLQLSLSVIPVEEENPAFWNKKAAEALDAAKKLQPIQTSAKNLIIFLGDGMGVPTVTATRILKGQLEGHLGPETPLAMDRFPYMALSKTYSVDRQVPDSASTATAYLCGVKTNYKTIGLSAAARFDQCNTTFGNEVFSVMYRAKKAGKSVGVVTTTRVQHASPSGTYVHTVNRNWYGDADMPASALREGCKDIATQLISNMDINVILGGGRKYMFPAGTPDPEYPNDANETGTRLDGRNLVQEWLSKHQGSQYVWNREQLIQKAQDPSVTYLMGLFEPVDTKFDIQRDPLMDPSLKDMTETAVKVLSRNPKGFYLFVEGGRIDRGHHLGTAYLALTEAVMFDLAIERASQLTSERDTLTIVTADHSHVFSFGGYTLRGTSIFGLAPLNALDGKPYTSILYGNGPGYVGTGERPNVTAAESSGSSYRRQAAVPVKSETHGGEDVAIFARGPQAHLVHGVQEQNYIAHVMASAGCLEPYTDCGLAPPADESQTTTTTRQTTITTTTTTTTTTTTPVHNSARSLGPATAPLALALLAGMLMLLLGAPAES

[12] = biological target: RNA-editing ligase 1, mitochondrial (Trypanosoma brucei brucei, UniProt P86926); experiment: inhibition of trypanosome RNA editing ligase – biochemical, fluorescence, Trypanosoma brucei, dose response (AID 1117295); format: functional
RNA-editing ligase 1, mitochondrial, sequence (P86926 whole entry): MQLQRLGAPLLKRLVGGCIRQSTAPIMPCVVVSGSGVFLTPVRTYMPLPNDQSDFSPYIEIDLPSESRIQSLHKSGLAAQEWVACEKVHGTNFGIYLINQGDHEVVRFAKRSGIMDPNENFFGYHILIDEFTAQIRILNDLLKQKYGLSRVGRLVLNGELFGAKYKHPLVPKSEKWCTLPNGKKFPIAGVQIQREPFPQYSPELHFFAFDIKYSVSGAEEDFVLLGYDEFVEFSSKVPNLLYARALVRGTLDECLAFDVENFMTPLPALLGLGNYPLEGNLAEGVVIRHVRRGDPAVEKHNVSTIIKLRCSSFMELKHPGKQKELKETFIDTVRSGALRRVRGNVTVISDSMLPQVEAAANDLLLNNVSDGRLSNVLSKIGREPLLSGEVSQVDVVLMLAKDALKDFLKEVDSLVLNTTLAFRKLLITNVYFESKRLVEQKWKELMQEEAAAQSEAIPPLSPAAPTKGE

[13] = biological target: T1, Alkaline phosphatase, tissue-nonspecific isozyme (Homo sapiens, UniProt P05186); experiment: TNAP enzyme inhibition by screening hits, dose response, selectivity assay for mouse IAP inhibitor project, biochemical, human TNAP, uHTS hits (AID 488906); format: functional
T1 sequence (P05186 whole entry): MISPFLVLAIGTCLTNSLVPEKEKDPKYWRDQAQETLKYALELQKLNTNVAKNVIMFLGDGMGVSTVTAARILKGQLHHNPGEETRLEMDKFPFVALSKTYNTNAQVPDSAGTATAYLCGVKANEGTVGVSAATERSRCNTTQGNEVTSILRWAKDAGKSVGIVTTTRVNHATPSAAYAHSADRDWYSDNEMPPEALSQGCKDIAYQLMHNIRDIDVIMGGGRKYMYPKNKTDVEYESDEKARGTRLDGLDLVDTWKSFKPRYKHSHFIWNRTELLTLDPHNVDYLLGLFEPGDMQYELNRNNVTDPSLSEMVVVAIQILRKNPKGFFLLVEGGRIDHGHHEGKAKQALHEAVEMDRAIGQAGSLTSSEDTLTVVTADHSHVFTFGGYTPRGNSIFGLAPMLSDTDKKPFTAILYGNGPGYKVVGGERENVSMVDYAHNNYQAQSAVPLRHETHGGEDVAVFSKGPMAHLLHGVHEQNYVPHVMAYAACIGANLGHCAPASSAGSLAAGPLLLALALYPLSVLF

[14] = biological target: Intestinal-type alkaline phosphatase (Homo sapiens, UniProt P09923); experiment: inhibition of human intestinal alkaline phosphatase – biochemical, dose response (AID 488876); format: functional
Intestinal-type alkaline phosphatase (Homo sapiens, UniProt P09923), sequence (P09923 whole entry): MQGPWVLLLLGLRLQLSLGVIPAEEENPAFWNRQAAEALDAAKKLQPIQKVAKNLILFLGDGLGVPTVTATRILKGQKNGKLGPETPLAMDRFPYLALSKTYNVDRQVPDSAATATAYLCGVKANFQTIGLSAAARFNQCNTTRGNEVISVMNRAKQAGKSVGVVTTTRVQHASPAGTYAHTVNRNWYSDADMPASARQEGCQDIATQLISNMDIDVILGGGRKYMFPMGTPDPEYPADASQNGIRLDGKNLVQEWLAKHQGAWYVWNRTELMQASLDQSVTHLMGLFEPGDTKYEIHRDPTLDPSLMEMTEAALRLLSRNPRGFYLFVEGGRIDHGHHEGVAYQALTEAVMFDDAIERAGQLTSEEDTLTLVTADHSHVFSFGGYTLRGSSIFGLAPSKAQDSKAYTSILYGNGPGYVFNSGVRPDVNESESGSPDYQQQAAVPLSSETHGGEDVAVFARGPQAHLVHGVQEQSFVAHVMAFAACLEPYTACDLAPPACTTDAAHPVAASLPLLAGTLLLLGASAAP

[15] = biological target: Mitogen-activated protein kinase 10 (Homo sapiens, UniProt P53779); experiment: Dose response biochemical screening assay for inhibitors of c-Jun N-Terminal Kinase 3 (JNK3). [Related pubchem assays: 746 ]
[16] = biological target: Sphingosine 1-phosphate receptor 2 (Homo sapiens, UniProt O95136); experiment: Dose Response Cell Based Assay for Agonists of the S1P2 Receptor. [Related pubchem assays: 729, 736, 843 ]; format: functional
Sphingosine 1-phosphate receptor 2, sequence (O95136 whole entry): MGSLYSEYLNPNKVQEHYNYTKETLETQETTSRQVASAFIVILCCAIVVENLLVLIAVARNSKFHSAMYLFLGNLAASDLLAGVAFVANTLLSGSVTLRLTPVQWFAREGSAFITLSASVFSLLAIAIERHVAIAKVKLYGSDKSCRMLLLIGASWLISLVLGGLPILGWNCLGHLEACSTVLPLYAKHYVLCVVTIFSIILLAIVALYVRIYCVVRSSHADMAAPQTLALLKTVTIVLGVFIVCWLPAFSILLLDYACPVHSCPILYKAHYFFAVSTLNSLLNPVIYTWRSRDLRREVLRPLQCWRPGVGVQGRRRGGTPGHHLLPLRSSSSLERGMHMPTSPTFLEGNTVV

[17] = PAX5 cellular inhibition readout – cell-based, plate reader, dry powder samples, selectivity assay for PAX8 inhibitor project, dose response (AID 743047); format: functional;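 note: HEK293 cells carrying a Pax5 driven CD19 promoter luciferase reporter; potency of inhibitors that lower reporter luminescence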
[18] = general mammalian cell viability loss – activator set, cherry-pick, cytotoxicity control for miR-122 modulator project, dose response (AID 720690); format: functional, cell-based;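 note: HEK293T human cells scored for general mammalian cytotoxicity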
[19] = OVCAR-3 cell viability loss – plate reader, dry powder samples, PAX8 inhibitor project, dose response (AID 743044); format: functional, cell-based
cells [20] = format: functional, cell-based
[21] = OVCAR4 cell viability loss – plate reader, dry powder, SA11, cytotoxicity control for PAX8 inhibitor project, dose response (AID 743150); format: functional, cell-based; details: OVCAR-4
[22] = biological target: Heat shock protein HSP 90-alpha (Homo sapiens, UniProt P07900); format: functional, organism-based
Paired box protein Pax-8 = Paired box protein Pax-8 (Homo sapiens, UniProt Q06710); experiment: PAX8 transcriptional activity inhibition in RMG-I – RMG-I cells, luciferase, cherry-pick, dose response (AID 687027); format: functional, cell-based;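 note: luciferase reporter driven by Pax8 target thyroperoxidase promoter measured by SteadyGlo luminescence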
Paired box protein Pax-8, sequence (Q06710 whole entry): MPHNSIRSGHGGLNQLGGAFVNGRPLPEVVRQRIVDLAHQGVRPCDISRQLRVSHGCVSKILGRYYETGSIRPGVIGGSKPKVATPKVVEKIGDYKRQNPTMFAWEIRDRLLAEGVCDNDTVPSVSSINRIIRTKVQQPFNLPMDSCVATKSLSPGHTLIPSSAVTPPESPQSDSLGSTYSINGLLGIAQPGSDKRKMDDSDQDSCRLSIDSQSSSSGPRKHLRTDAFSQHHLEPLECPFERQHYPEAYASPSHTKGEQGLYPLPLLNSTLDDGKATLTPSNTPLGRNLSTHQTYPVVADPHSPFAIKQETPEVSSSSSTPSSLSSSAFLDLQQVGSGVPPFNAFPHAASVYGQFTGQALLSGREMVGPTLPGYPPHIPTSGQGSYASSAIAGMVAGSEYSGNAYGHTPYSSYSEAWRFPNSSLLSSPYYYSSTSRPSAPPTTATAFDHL

[23] = general mammalian cell viability loss – inhibitor set, cherry-pick, set 2, cytotoxicity control for miR-122 modulator project, dose response (AID 720697); format: functional, cell-based
[24] = toxicity toward immortalized ovarian surface epithelium – cell-based, plate reader, dry powder samples, cytotoxicity control for PAX8 inhibitor project, dose response (AID 743045); format: functional
[25] = COV434 cell viability loss – plate reader, dry powder, SA7, cytotoxicity control for PAX8 inhibitor project, dose response (AID 743145); format: functional, cell-based
[26] = Trypanosoma cruzi growth suppression in host cells – NIH3T3 host cells, beta-gal luminescence, confirmation (AID 2044); format: functional, cell-based;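 note: intracellular parasites grown in NIH/3T3 mouse fibroblasts as host cells; luminescent beta-galactosidase reporter signal from transgenic T. cruzi replicating inside host cells; inhibitors lower the luminescence signal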
[27] = A2780 cell killing – plate reader, dry powder samples, cytotoxicity control, dose response (AID 743046); format: functional, cell-based
[28] = inhibitors acting on PAX2 in cells – cell-based, plate reader, dry powder samples, selectivity assay for PAX8 inhibitor project, dose response (AID 743048); format: functional;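 note: HEK293 cells carrying a WT1 promoter luciferase reporter driven by expressed Pax2; potency is for inhibition of Pax2 driven reporter signal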
[29] = IGROV1 cell killing – plate reader, dry powder samples, PAX8 inhibitor project, dose response (AID 743043); format: functional, cell-based; details: IGROV-1
[30] = NIH3T3 cell viability loss – ATP luminescence, mouse fibroblasts, counter-screen, dose response (AID 2010); format: functional, cell-based;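 note: cells exposed to compound for about 90 hours before reading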
INS1 = experiment: INS-1E survival protection against cytokine death – cell-based, luminescence, retest, dose response (AID 449756); format: functional; details: Rattus norvegicus, INS1;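 note: cell death triggered by IL-1 beta plus TNF-alpha plus IFN-gamma mixture; protective hits raise ATP signal compared with cytokine alone wells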
[31] = OV-90 cell viability loss – plate reader, dry powder, SA8, PAX8 inhibitor project, dose response (AID 743149); format: functional, cell-based
[32] = COV362 cell viability loss – plate reader, dry powder, SA12, cytotoxicity control for PAX8 inhibitor project, dose response (AID 743144); format: functional, cell-based
[33] = loss of viability in HepG2 cells – cell-based, CellTiter-Glo, cherry-picked, cytotoxicity control for Shn3 inhibitor project, dose response (AID 624134); format: functional
[34] = reduction of Shn3 3'UTR-driven luciferase in osteoblasts – cell-based, Clone20 osteoblasts, firefly luciferase, cherry-picked, dose response (AID 624132); format: functional;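 note: firefly luciferase luminescence from reporter carrying the Shn3 3'UTR in osteoblasts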
[35] = PAX8-dependent cell viability loss – plate reader, dry powder, dose response (AID 743049); format: functional, cell-based
[36] = HGIII-sPLA2 enzyme inhibition potency – biochemical, QFRET, IC50, dose response (AID 743457);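 note: green fluorescence rise as the enzyme cleaves BODIPY PC-A2 in liposomes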
[37] = non-specific 3'UTR reporter inhibition in Clone20-Shn3RL – cell-based, Renilla luciferase, cherry-picked, counter-screen for Shn3 inhibitor project, dose response (AID 624133); format: functional
cells [38] = format: functional, cell-based; remark: listed apart in the source
[39] = biological target: Melanin-concentrating hormone receptor 1 (Homo sapiens, UniProt Q99705); experiment: Fluorescence-based counterscreen for antagonists of the G-protein coupled receptor 7 (GPR7): cell-based high throughput dose response assay to identify antagonists of the melanin-concentrating hormone receptor 1 (MCHR1).; format: functional
Melanin-concentrating hormone receptor 1, sequence (Q99705 whole entry): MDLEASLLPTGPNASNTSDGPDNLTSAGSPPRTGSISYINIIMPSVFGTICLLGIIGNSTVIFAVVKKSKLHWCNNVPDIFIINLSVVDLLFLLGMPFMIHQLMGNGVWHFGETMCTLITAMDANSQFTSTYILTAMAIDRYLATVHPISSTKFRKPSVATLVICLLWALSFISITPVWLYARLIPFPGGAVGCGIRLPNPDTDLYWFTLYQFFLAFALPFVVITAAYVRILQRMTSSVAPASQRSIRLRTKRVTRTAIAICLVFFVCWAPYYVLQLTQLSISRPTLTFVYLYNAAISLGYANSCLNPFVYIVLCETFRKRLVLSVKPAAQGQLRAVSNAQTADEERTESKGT

[40] = biological target: T2, Neuropeptides B/W receptor type 1 (Homo sapiens, UniProt P48145); experiment: Fluorescence-based dose response cell-based high throughput screening assay to identify antagonists of the G-protein coupled receptor 7 (GPR7). [Related pubchem assays: 1952 (Screening assay (GPR7 antagonists).), 1880 (Summary AID.)]; format: functional
T2 sequence (P48145 whole entry): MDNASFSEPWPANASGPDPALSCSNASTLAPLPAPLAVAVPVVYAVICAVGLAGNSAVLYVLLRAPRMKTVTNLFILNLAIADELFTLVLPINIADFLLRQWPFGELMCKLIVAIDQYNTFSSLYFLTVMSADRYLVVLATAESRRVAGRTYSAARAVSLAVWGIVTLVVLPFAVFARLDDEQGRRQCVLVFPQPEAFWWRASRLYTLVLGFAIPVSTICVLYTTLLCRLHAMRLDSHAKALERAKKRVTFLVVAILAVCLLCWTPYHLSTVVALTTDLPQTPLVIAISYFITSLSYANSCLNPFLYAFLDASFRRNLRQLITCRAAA

[41] = Dd2 parasite growth inhibition in erythrocytes – SYBR Green, dry powder samples, set 9, dose response (AID 1159568); format: functional, cell-based
[42] = biological target: T3, Low molecular weight phosphotyrosine protein phosphatase (Homo sapiens, UniProt P24666); experiment: inhibition of LMPTP-A enzymatic activity – biochemical, OMFP substrate, fluorescence intensity, set 2, dose response (AID 743307); format: functional
T3 sequence (P24666 whole entry): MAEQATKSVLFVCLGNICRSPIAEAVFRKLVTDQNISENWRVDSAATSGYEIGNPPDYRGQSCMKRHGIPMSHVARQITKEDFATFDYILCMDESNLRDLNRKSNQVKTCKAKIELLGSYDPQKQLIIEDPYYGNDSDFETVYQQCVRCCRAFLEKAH

[43] = biological target: T3, Low molecular weight phosphotyrosine protein phosphatase; experiment: inhibition of human LMPTP enzyme activity – biochemical, absorbance, pNPP substrate, LMPTP-A isoform, set 2, orthogonal assay, dose response (AID 743308); format: functional
[44] = Potency on glucagon-like peptide 1 release, dose-response in NCI-H716 cell line, half maximal inhibitory concentration (AID 1117344); format: functional, cell-based
[45] = IC50 of insulin release inhibition, rat insulinoma INS-1E line, 5 mM glucose, cell-based (AID 1117331); format: functional
[46] = glucagon-like peptide-1 release potency in STC-1, concentration-response, half-maximal inhibitory concentration in the STC-1 line (AID 1117345); format: functional, cell-based

CC[C@]1(O)C[C@H]2CN(CCc3c([nH]c4ccccc34)[C@@](C(=O)OC)(c3cc4c(cc3OC)N(C=O)[C@H]3[C@@](O)(C(=O)OC)[C@H](OC(C)=O)[C@]5(CC)C=CCN6CC[C@]43[C@@H]65)C2)C1 [VINCRISTINE]
active: IC50 [1] 5.9 nM | IC50 [2] 6.2 nM

COc1ccccc1-c1ccc([C@@H]2[C@@H](C#N)N[C@@H]2CO)cc1
inactive: AC50 [5] > 100 µM
active: AC50 [3] 3.02 µM | AC50 [4] 907 nM | AC50 [6] 6.32 µM | AC50 [7] 3.22 µM | AC50 [8] 946 nM

CCOC(=O)c1c(-c2ccc(C(C)(C)C)cc2)csc1NC(=O)CN1CCN(C)CC1
active: AC50 [9] 21.4 µM | AC50 [10] 16.4 µM

O=C(NCCN1CCC2(CC1)C(=O)NCN2Cc1ccccc1)c1ccc2ccccc2c1
active: IC50 (Phospholipase D2) 890 nM | IC50 (Phospholipase D1) 8.26 µM

N#Cc1c(SCC(=O)Nc2nccs2)sc2c(O)cc(O)nc12
active: IC50 [11] 485 nM
inactive: IC50 [12] 35.5 µM | IC50 [13] > 100 µM | IC50 [14] > 100 µM

COC(=O)c1ccc(Cn2c(O)c(N=O)c3ccccc32)o1
> 31 µM (not active): IC50 [15]

C(=C\c1ccccc1)/CSc1nnc(-c2ccccc2)n1Cc1ccco1
> 50 µM (not active): EC50 [16]

CCCCC(=O)NC(c1ccccc1OC)c1ccc2cccnc2c1O (stereo not given)
> 350 µM (not active): EC50 (cells [20])
inactive: IC50 [36] > 122 µM
active: AC50 [17] 3.51 µM | AC50 [18] 3.36 µM | AC50 [19] 4.87 µM | AC50 [21] 16.3 µM | AC50 [22] 4.38 µM | AC50 (Paired box protein Pax-8) 2.44 µM | AC50 [23] 2.22 µM | AC50 [24] 5.77 µM | AC50 [25] 6.89 µM | EC50 [26] 435 nM | AC50 [27] 8.16 µM | AC50 [28] 3.22 µM | AC50 [29] 7.55 µM | EC50 [30] 1.27 µM | AC50 (INS1) 718 nM | AC50 [31] 10.7 µM | AC50 [32] 7.92 µM | AC50 [33] 2.55 µM | AC50 [34] 1.19 µM | AC50 [35] 20.1 µM | AC50 [37] 3.18 µM | EC50 (cells [38]) 6.29 µM

O=C(O)c1ccc(NCc2cccc(Br)c2)cc1
> 43.8 µM (not active): IC50 [39] | IC50 [40]

C[C@H]1CCCCO[C@H](CN(C)S(=O)(=O)c2ccccc2)[C@@H](C)CN([C@@H](C)CO)C(=O)c2cc(NC(=O)Nc3ccc4c(c3)OCO4)ccc2O1
active: AC50 [41] 2.22 µM

Fc1ccc2nc(-c3ccccc3)cc(NCCCN3CCCCC3)c2c1
inactive: IC50 [42] 22 µM | IC50 [43] 21 µM

CC(COc1ccccc1)NN (stereo not given) [PHENOXYPROPAZINE]
inactive: IC50 [44] > 40 µM | IC50 [45] > 33.3 µM | IC50 [46] 27.2 µM
